Measured values from patent US7763662B2, “Use of C2-substituted indan-1-ol systems for preparing medicaments for the prophylaxis or treatment of obesity” (Sanofi-Aventis Deutschland GmbH, priority 2001, dated 2010).

How the values were obtained:
female NMRI mice = assay: Anorectic action: cumulative evaporated milk consumption after 24 h feed removal; format: in vivo; conditions: ip or po (route not specified), N=5; for Reduction in cumulative milk consumption as % of the control: compared with vehicle-treated control animals; for cumulative milk consumption by treated animals: milk offered 30 min after administration, monitored for 7 hours
Procedure: The activity of the compounds was assayed as follows:
The anorectic action was tested on female NMRI mice. After removal of feed for 24 hours, the preparation to be tested was administered intraperitoneally (ip) or by gavage (po). The animals were housed singly and, with free access to drinking water, they were offered evaporated milk 30 minutes after administration of the preparation. The consumption of evaporated milk was determined and the general behavior of the animals was monitored every half an hour for 7 hours. The measured milk consumption was compared to that of vehicle-treated control animals.

SMILES	melting point [°C]	Reduction in cumulative milk consumption as % of the control (female NMRI mice; dose 20 mg/kg)	cumulative milk consumption by treated animals (female NMRI mice; dose 20 mg/kg)	Reduction in cumulative milk consumption as % of the control (female NMRI mice; dose 50 mg/kg)	cumulative milk consumption by treated animals (female NMRI mice; dose 50 mg/kg)
CSC1Cc2cc(Cl)ccc2C1O (stereo not shown) (hydrate or solvate) [Example 4, 5-Chloro-2-methylsulfanylindan-1-ol]	197.1	–	–	–	–
CS(=O)(=O)C1Cc2cc(Cl)ccc2C1O (stereo not shown) [Example 1, 5-Chloro-2-methylsulfonylindan-1-ol]	163	50 % of the control	5/1.94 ml	–	–
CCS(=O)(=O)C1Cc2cc(Cl)ccc2C1O (stereo not shown) [Example 3, 5-Chloro-2-ethanesulfonylindan-1-ol]	145	–	–	–	–
CSC1Cc2cc(Cl)ccc2C1O (stereo not shown) [Example 4, 5-Chloro-2-methylsulfanylindan-1-ol]	–	–	–	85 % of the control	5/0.70 ml
